The structures appear in SMILES notation.

Experiment [1] concerns the target T1, Carbonic anhydrase 2 (Homo sapiens, UniProt P00918). Briefly: Inhibition of human CA2 pre-incubated for 15 mins to 24 hrs measured after 6 hrs by phenol red-based stopped-flow CO2 hydrase assay.
The target in experiment [2] is T2, Carbonic anhydrase 9 (Homo sapiens, UniProt Q16790). Briefly: Inhibition of human CA9 pre-incubated for 15 mins to 24 hrs measured after 6 hrs by phenol red-based stopped-flow CO2 hydrase assay.
The target in experiment [3] is T3, Carbonic anhydrase 1 (Homo sapiens, UniProt P00915). Briefly: Inhibition of human CA1 pre-incubated for 15 mins to 24 hrs measured after 15 mins by phenol red-based stopped-flow CO2 hydrase assay.
T3 sequence (P00915 whole entry): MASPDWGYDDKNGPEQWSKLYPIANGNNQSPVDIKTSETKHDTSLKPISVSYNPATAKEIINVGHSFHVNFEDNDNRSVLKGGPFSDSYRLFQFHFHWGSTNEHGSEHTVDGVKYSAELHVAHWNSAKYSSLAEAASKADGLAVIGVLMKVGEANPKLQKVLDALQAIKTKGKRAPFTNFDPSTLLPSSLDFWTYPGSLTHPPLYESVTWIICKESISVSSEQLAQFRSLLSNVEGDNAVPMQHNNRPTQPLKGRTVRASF
Experiment [4] deals with T1, Carbonic anhydrase 2. Put plainly: Inhibition of human CA2 pre-incubated for 15 mins to 24 hrs measured after 15 mins by phenol red-based stopped-flow CO2 hydrase assay.
Experiment [5] concerns the target T2, Carbonic anhydrase 9. Put plainly: Inhibition of human CA9 pre-incubated for 15 mins to 24 hrs measured after 15 mins by phenol red-based stopped-flow CO2 hydrase assay.
The target of experiment [6] is T3, Carbonic anhydrase 1. Briefly: Inhibition of human CA1 pre-incubated for 15 mins to 24 hrs measured after 6 hrs by phenol red-based stopped-flow CO2 hydrase assay.

Usually Ki stands for a measure of affinity in units of concentration, obtained from inhibition or displacement. Take `O=c1cccco1`: the Ki was more than 100 µM in experiment [1] and 1.6 µM in experiment [2].

Regarding `S=c1cccco1`, the results for the Ki in experiment [1] and in experiment [2] were more than 100 µM and 7.45 µM, respectively.

With `Cc1cc(C)oc(=S)c1`, the values for the Ki in experiment [1] and in experiment [2] were more than 100 µM and 9.51 µM, respectively.

In the case of `O=C(O)/C=C/CCO`, the results for the Ki in experiment [3], in experiment [4] and in experiment [5] were 8.46 µM, more than 100 µM and 1.15 µM, respectively.

As for `CC1CCC(=O)O1` (stereo unspecified), the results for the inhibition constant Ki in experiment [1] and in experiment [2] were more than 100 µM and 0.92 µM, respectively.

Turning to `COC1=CC(=O)OC1`, the figures for the inhibition constant (Ki) in experiment [1] and in experiment [2] were more than 100 µM and 3.38 µM, respectively.

`Cc1cc(C)oc(=O)c1`: the Ki in experiment [1] was more than 100 µM.

As to `O=C1CCCCO1`, the Ki was more than 100 µM in experiment [1] and 3.66 µM in experiment [2].

As to `O=C1C=CCCO1`, the Ki in experiment [1] was more than 100 µM; in experiment [2], 1.35 µM.

In turn, `O=C1C=CCO1` [FURAN-2(5H)-ONE] showed a Ki in experiment [1] of more than 100 µM.

Regarding `O=C(O)/C=C/c1ccccc1O` [O-COUMARIC ACID], the results for the Ki in experiment [6] and in experiment [2] were 3.4 µM and more than 100 µM, respectively.

The record behind these values is ChEMBL document CHEMBL1932973, “5- and 6-membered (thio)lactones are prodrug type carbonic anhydrase inhibitors” (Bioorg Med Chem Lett, 2012).
